The results in this text go back to patent US8487121B2, “Chromane derivatives as TRPV3 modulators” (Glenmark Pharmaceuticals S.A., priority 2007, dated 2013).

This test addresses T1, Human TRPV3 (Homo sapiens, UniProt Q8NET8).
T1 construct: expressed in transfected cells; host or cells: CHO cells (G-418 selected)
T1 sequence (Q8NET8 1-790): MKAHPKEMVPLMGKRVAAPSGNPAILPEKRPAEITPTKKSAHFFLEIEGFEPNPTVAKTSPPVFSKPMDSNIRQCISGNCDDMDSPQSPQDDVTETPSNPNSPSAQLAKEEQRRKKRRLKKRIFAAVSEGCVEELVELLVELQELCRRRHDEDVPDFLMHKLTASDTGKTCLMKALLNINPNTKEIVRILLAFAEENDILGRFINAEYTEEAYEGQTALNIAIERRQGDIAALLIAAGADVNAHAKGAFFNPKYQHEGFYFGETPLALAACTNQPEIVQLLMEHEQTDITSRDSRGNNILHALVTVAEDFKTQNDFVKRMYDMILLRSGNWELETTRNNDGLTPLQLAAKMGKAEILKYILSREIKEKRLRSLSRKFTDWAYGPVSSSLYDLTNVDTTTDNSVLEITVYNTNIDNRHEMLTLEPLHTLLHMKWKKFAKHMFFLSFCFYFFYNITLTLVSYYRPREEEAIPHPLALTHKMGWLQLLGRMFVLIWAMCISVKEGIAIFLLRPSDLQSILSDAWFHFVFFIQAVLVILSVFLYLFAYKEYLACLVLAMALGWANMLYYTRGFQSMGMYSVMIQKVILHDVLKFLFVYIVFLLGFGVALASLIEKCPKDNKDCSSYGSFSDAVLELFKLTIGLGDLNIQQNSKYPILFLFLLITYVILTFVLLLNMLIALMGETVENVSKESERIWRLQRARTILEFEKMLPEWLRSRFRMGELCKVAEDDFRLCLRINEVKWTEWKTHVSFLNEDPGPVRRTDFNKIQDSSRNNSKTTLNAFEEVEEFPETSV
Description: 45Calcium uptake assay: inhibition of 2-APB induced cellular uptake of radioactive calcium. The test is classed as cell-based. The following applies: human TRPV3 expressing CHO cells, 2-APB 500 μM; for inhibition at 1 µM: 1.0 μM compound, read-out: Percentage inhibition at 1.0 μM; for inhibition at 10 µM: 10.0 μM compound, read-out: Percentage inhibition at 10.0 μM. From the text:
The illustrative examples of the present invention are screened for TRPV3 activity according to a modified procedure described in Toth, A. et al. Life Sciences (2003), 73, 487-498. The screening of the compounds can be carried out by other methods and procedures known to a person skilled in the art. Such screening methods may be found in Hu, H-Z., et al. J. Biol. Chem. (2004), 279, 35741-35748; Smith, G. D et al. Nature (2002), 418, 186-190 and Peier, A. M., et al. Science (2002), 296, 2046-2049.
Screening for TRPV3 Antagonist Using the ^45Calcium Uptake Assay:
The inhibition of TRPV3 receptor activation was followed as inhibition of 2-APB induced cellular uptake of radioactive calcium. Test compounds were dissolved in DMSO to prepare 20 mM stock and then diluted using plain medium with 0.1% BSA and 1.8 mM CaCl2 to get desired concentration. Final concentration of DMSO in the reaction was 0.5% (v/v). Human TRPV3 expressing CHO cells were grown in F-12 DMEM medium with 10% FBS, 1% penicillin-streptomycin solution, 400 μg/ml of G-418. Cells were seeded 24 h prior to the assay in 96 well plates so as to get ˜50,000 cells per well on the day of experiment. Cells were treated with test compounds for 10 minutes followed by addition of 2-APB at a final concentration of 500 μM and 5 μCi/ml ^45Ca^+2 for 4 minutes. Cells were washed and lysed using buffer containing 1% Triton X-100, 0.1% deoxycholate and 0.1% SDS. Radioactivity in the lysate was measured in Packardt Top count after addition of liquid scintillant.
Concentration response curves were plotted as a % of maximal response obtained in the absence of test antagonist. IC50 value was calculated from concentration response curve by nonlinear regression analysis using GraphPad PRISM software.
Percentage inhibition at concentrations of 1.0 μM and 10.0 μM are given in the table along with IC50 (nM) values for selected examples.

Molecules are shown by their SMILES. Where only a bound is given, the exact number is not on record here.

As to `COc1cccc(CCC(=O)NC2CC3(CCC3)Oc3ccc(Cl)cc32)c1OCC1CC1` (centres unmarked) [Example 41, N-(6-Chloro-3,4-dihydrospiro[chromene-2,1′-cyclobutan]-4-yl)-3-(2-cyclopropylmethoxy-3-methoxy)phenylpropanamide], the inhibition (in general, the relative decrease from the control value, in per cent) at 1 µM was found to be 49%; the inhibition at 10 µM amounted to 96.4%; the IC50 (in general, the point on the concentration scale where inhibition reaches its midpoint) was 500 to 1000 nM.
Turning to `COc1cccc(CCCC(=O)NC2CCSc3ccc(Cl)cc32)c1OC1CCCC1` (centres unmarked) [Example 104, N-(6-chloro-3,4-dihydro-2H-thiochromen-4-yl)-4-(2-cyclopentyloxy-3-methoxyphenyl)-butanamide], the inhibition at 1 µM worked out at 51.3% and the inhibition at 10 µM was found to be 92.5%.
The like results for `O=C(Cc1ccc2c(c1)OCO2)NC1CC2(CCC2)Oc2ccc(Cl)cc21` (centres unmarked) [Example 23, 2-(1,3-Benzodioxol-5-yl)-N-(6-chloro-3,4-dihydrospiro[chromene-2,1′-cyclobutan]-4-yl)acetamide] were, in that order, 6.2% and 65.3%.
Take `O=C(Cc1cccc2ccccc12)NC1CC2(CCC2)Oc2ccc(F)cc21` (centres unmarked) [Example 10]: the inhibition at 1 µM worked out at 13.7% and the inhibition at 10 µM turned out to be 92.4%.
As for `O=C(CC1CCc2ccccc2C1)NC1CC2(CCC2)Oc2ccc(Cl)cc21` (centres unmarked) [Example 22, N-[(6-Chloro-3,4-dihydrospiro[chromene-2,1′-cyclobutan]-4-yl)]-2-(1,2,3,4-tetrahydronaphthalen-2-yl)acetamide], the inhibition at 1 µM was determined as 35.3% and the inhibition at 10 µM was determined as 72.1%.
Taken in the same sequence, the figures for `COc1cccc(CCC(=O)NC2CCSc3ccc(Cl)cc32)c1OC1CCCC1` (centres unmarked) [Example 89, N-(6-chloro-3,4-dihydro-2H-thiochromen-4-yl)-3-(2-cyclopentyloxy-3-methoxyphenyl)-propanamide] were 38% and 87.3%.
As for `O=C(CCc1ccccc1OC1CCCC1)N[C@H]1CC2(CCC2)Oc2cc(OCc3ccccc3)ccc21` [Example 33, 7-Benzyloxy-N-(3,4-dihydrospiro[chromene-2,1′-cyclobutan]-4-yl)-3-(2-cyclopentylxoyphenyl)propanamide], the inhibition at 1 µM stood at 13.5% and the inhibition at 10 µM was found to be 33.9%.
As for `O=C(Cc1ccccc1)NC1CC2(CCC2)Oc2c(Cl)cccc21` (centres unmarked) [Example 1, N-(8-Chloro-3,4-dihydrospiro[chromene-2,1′-cyclobutan]-4-yl)-2-phenylacetamide], the inhibition at 1 µM came to 1.7% and the inhibition at 10 µM came to 10%.
Take `CC(C)Oc1c(CCC(=O)NC2CC3(CCC3)Oc3ccc(Cl)cc32)cccc1NS(C)(=O)=O` (centres unmarked) [Example 57, N-(6-Chloro-3,4-dihydrospiro[chromene-2,1′-cyclobutan]-4-yl)-3-{2-isopropoxy-3-[(methylsulfonyl)amino]phenyl}propanamide]: the inhibition at 1 µM turned out to be 30.3% and the inhibition at 10 µM amounted to 84.3%.
As to `O=C(CCc1cccc(OC2CCCC2)c1)N[C@H]1CC2(CCC2)Oc2ccc(Cl)cc21` [Example 30, N-[(4S)-6-chloro-3,4-dihydrospiro[chromene-2,1′-cyclobutan]-4-yl]-3-(3-cyclopentyloxy)phenylpropanamide], the inhibition at 1 µM was 46.8% and the inhibition at 10 µM is 80.6%.
Regarding `COc1cccc(CCCC(=O)N[C@H]2CC3(CCC3)Oc3c(Cl)cccc32)c1OC1CCCC1` [Example 96, (4S)—N-(8-Chloro-3,4-dihydrospiro[chromene-2,1′-cyclobutan]-4-yl)-4-(2-cyclopentyloxy-3-methoxyphenyl)butanamide], the inhibition at 1 µM was determined as 44.4% and the inhibition at 10 µM was determined as 80.9%.
In the case of `CCOc1c(CCC(=O)NC2CC3(CCC3)Oc3c(Cl)cccc32)cccc1OC` (centres unmarked) [Example 46, N-(8-Chloro-3,4-dihydrospiro[chromene-2,1′-cyclobutan]-4-yl)-3-(2-ethoxy-3-methoxy)phenylpropanamide], the inhibition at 1 µM was determined as 53.2%, the inhibition at 10 µM was 99.7% and the IC50 was 500 to 1000 nM.
As for `CCCOc1c(CCC(=O)NC2CC3(CCC3)Oc3c(Cl)cc(Cl)cc32)cccc1NS(C)(=O)=O` (centres unmarked) [Example 61, N-(6,8-dichloro-3,4-dihydrospiro[chromene-2,1′-cyclobutan]-4-yl)-3-{2-propoxy-3-[(methylsulfonyl)amino]phenyl}propanamide], the inhibition at 1 µM is 45.1% and the inhibition at 10 µM amounted to 93.8%.
In the case of `O=C(CCc1cccc2c1oc1ccccc12)NC1CC2(CCC2)Oc2ccc(Cl)cc21` (centres unmarked) [Example 85, N-(6-Chloro-3,4-dihydrospiro[chromene-2,1′-cyclobutan]-4-yl)-3-(dibenzo[b,d]furan-4-yl)propanamide], the inhibition at 1 µM is 76.9%, the inhibition at 10 µM turned out to be 90.4% and the IC50 was < 500 nM.
As to `O=C(CCc1ccc2ccccc2n1)NC1CC2(CCC2)Oc2ccc(Cl)cc21` (centres unmarked) [Example 76, N-(6-Chloro-3,4-dihydrospiro[chromene-2,1′-cyclobutan]-4-yl)-3-(quinolin-2-yl)propanamide], the inhibition at 1 µM turned out to be 23.5% and the inhibition at 10 µM worked out at 58.8%.
As to `COc1ccc2ccccc2c1CCC(=O)NC1CCSc2ccc(Cl)cc21` (centres unmarked) [Example 90, N-(6-chloro-3,4-dihydro-2H-thiochromen-4-yl)-3-(2-methoxy-1-naphthyl)propanamide], the inhibition at 1 µM stood at 49.2% and the inhibition at 10 µM is 91.4%.
Regarding `O=C(Cc1noc2ccccc12)N[C@H]1CC2(CCC2)Oc2ccc(Cl)cc21` [Example 27], the inhibition at 1 µM was 5.3% and the inhibition at 10 µM is 75.9%.
On to `COc1cccc(CCCC(=O)NC2CC3(CCC3)Oc3cc(OCc4ccccc4)ccc32)c1OC1CCCC1` (centres unmarked) [Example 99, N-(7-Benzyloxy-3,4-dihydrospiro[chromene-2,1′-cyclobutan]-4-yl)-4-(2-cyclopentyloxy-3-methoxyphenyl)butanamide], for which the inhibition at 1 µM turned out to be 19.9% and the inhibition at 10 µM amounted to 19.6%.
On to `COc1cccc(CCC(=O)NC2CC3(CCC3)Oc3cccc(OCc4ccccc4)c32)c1OC1CCCC1` (centres unmarked) [Example 50, N-(5-Benzyloxy-3,4-dihydrospiro[chromene-2,1′-cyclobutan]-4-yl)-3-(2-cyclopentyloxy-3-methoxy)phenylpropanamide], for which the inhibition at 1 µM stood at 52.8%, the inhibition at 10 µM worked out at 77.6% and the IC50 fell in the range of 500 to 1000 nM.
Take `O=C(CC1CCCc2ccccc21)NC1CC2(CCC2)Oc2ccc(Cl)cc21` (centres unmarked) [Example 21, N-(6-Chloro-3,4-dihydrospiro[chromene-2,1′-cyclobutan]-4-yl)-2-(1,2,3,4-tetrahydronaphthalen-1-yl)acetamide]: the inhibition at 1 µM was found to be 63.5%, the inhibition at 10 µM amounted to 93.6% and the IC50 lay in the range of 500 to 1000 nM.
In the case of `O=C(CCc1ccccc1OC1CCCC1)N[C@H]1CC2(CCC2)Oc2c(Cl)cccc21` [Example 32], the inhibition at 1 µM amounted to 24.8% and the inhibition at 10 µM is 43.9%.
The like results for `O=C(CCc1ccc2c(c1)OCCO2)NC1CC2(CCC2)Oc2ccc(F)cc21` (centres unmarked) [Example 81] were, in that order, 29.1% and 54.8%.
`O=C(Cc1cccc2ccccc12)N[C@@H]1CC2(CCC2)Oc2c(Cl)cccc21` [Example 15, N-[(4R)-8-Chloro-3,4-dihydrospiro[chromene-2,1′-cyclobutan]-4-yl]-2-(1-naphthyl)-acetamide]: the inhibition at 10 µM turned out to be 27.3%.
